From PMC400651 (Breast Cancer Research, 2003) come the findings set out here.

What is called IC50 is the midpoint of a concentration-inhibition curve. A low value points to greater potency in that assay.

The structures appear in SMILES notation.

In this test the target is aryl hydrocarbon receptor (AhR) (Homo sapiens, UniProt P35869). The test can be described thus: [3H]TCDD radioligand competition in whole T47D cells. The format is cell-based.
aryl hydrocarbon receptor (AhR), sequence (P35869 11-848): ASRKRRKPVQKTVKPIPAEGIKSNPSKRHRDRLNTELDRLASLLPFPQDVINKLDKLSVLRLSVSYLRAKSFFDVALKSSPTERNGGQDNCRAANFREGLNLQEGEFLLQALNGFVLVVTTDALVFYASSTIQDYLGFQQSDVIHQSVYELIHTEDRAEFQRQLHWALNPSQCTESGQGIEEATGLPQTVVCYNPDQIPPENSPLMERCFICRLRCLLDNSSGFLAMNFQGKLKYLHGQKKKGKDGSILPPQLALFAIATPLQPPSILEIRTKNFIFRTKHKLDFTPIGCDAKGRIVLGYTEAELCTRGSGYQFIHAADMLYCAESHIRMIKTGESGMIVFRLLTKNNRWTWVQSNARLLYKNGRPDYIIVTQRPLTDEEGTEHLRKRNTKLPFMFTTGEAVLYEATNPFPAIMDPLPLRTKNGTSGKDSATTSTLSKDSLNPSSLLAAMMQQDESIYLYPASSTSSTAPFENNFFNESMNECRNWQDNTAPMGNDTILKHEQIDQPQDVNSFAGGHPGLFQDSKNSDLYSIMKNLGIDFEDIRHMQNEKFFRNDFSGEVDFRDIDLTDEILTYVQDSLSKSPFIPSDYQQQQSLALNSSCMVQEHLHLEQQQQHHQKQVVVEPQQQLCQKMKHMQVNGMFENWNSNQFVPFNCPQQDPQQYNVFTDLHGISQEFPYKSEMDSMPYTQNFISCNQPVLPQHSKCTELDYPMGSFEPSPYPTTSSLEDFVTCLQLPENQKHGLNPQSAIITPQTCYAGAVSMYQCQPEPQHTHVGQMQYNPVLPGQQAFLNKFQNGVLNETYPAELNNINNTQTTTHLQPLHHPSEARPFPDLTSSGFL

As to `O=C(O)/C=C/c1ccc(O)c(O)c1` [caffeic acid], the IC50 came to 158 nM.
